Target: T1, Human thrombin (Homo sapiens, UniProt P00734)
T1 construct: purchased Sigma Chem. Co. T 6769
Assay: Determination of Thrombin Clotting Time (TT), Test A
Type: biochemical
Conditions: concentration of inhibitor that doubles the thrombin clotting time for human plasma; pooled normal citrated human plasma, pH 7.4
Experimental: Determination of Thrombin Clotting Time (TT)
Human thrombin (T 6769, Sigma Chem. Co.) in buffer solution, pH 7.4, 100 μL, and inhibitor solution, 100 μL, were incubated for one min. Pooled normal citrated human plasma, 100 μL, was then added and the clotting time measured in an automatic device (KC 10, Amelumg).
The clotting time in seconds was plotted against the inhibitor concentration, and the IC50TT was determined by interpolation.
IC50TT is the concentration of inhibitor in the test that doubles the thrombin clotting time for human plasma.

Question: `COc1ccc(OC)c(C(CO)C(=O)N2CCCC2C(=O)NCc2ccc(C(=N)N)cc2C)c1` (single isomer, unassigned) [Example 2, (2,5-diMeO)Ph—(R or S)CH(CH2OH)—CO-Pro-Pab(2-Me)×HOAc] was tested. Which IC50 did it give?
Answer: < 300 nM
